Source: patent US20120329749A1, “Methods Of Preventing Or Treating Disease States Related To Certain Metabolic Abnormalities” (priority 2011, published 2012)

Test system: erectile dysfunction
Experiment: Patient-reported erectile dysfunction symptoms
Experimental: The patient was placed on a regimen of 5,0 mg L-methylfolate and 2 mg methyl-B12 per day.
The patient was placed on a regimen of 2.8 mg L-methylfolate and 2 mg methyl-B12 per day.
The patient was placed on a regimen of 5.0 mg L-methylfolate and 2 mg methyl-B12 per day.
The patient was placed on a regimen of L-methylfolate, methyl-B12, and pyridoxal-5-phosphate (PSP; active vitamin B6) twice per day.
The patient was placed on a regimen of L-methylfolate, methyl-B12, and pyridoxal-5-phosphate (P5P; active vitamin B6) twice per day.

CCCc1nn(C)c2c(=O)[nH]c(-c3cc(S(=O)(=O)N4CCN(C)CC4)ccc3OCC)nc12 [Viagra]
effect on erectile dysfunction (patient history) (Patient 20, 50 mg for 2 months): ineffective
effect on erectile dysfunction (patient history) (Patient 21, 20 mg for 1 month): ineffective
